Read-outs that look alike come from different tables or passages of the source.
Columns and labels:
[1] = biological target: T1, hNav1.4 (Homo sapiens, UniProt P35499); assay: cell-based; conditions: QPatch; read-out: Fitted Emax hNav1.4
[2] = biological target: T2, hNav1.2 (Homo sapiens, UniProt Q99250); assay: cell-based; conditions: manual patch clamp; read-out: Fitted Emax hNav1.2
[3] = biological target: T3, hNav1.7 (Homo sapiens, UniProt Q15858); assay: cell-based; conditions: QPatch; read-out: Fitted Emax hNav1.7
T3 construct: host or cells: HEK293

[4] = biological target: T4, hNav1.1 (Homo sapiens, UniProt P35498); assay: cell-based; conditions: manual patch clamp
[5] = biological target: T4, hNav1.1; assay: cell-based; conditions: QPatch; read-out: Fitted Emax hNav1.1
[6] = 0.5 μg/h IT infusion; in words
Method: Efficacy was assessed in the hotplate and tail flick tests at various time points before pump implantation, during infusion and after discharge of the pumps.
All peptides were formulated in DPBS (no Ca^2+ and Mg^2+) and stored at 4 °C until use. For bolus administration, 10 μl of compound solution or vehicle were injected via the IT catheter followed by 10 μl saline flush. […] The osmotic pump was implanted subcutaneously above the scapula. Animals were excluded from behavioral studies if any motor dysfunction was noted following IT injection, if baseline thresholds were >90% or <10% of the cut-off value in the tail flick, hotplate and Hargreaves test, if there was significant leak (>20 μl) while injecting formalin into the paw or any malfunction of the metal bands or formalin apparatus. Intrathecal compound was administered 15 min–1 h before commencing behavioral testing. Intrathecal-cannulated rats were trained on the behavioral apparatus for at least two days before baseline withdrawal latencies were taken. All behavioral tests were conducted by an investigator blinded to group and treatment.

[7] = for mentation BAR (bright, alert and responsive) / normal corneal reflex / normal pinna reflex / normal placing stepping / scratching: 1.4 mg/100 μl perineural
Text: Rats ~250–300 g were placed under Isoflurane anesthesia (4% for induction, 2% for maintenance). A single hip and proximal hind-leg area were shaved and the injection area prepped with alternating applications of chlorhexidine 2% soln. and isopropyl alcohol 70%. A pelvic notch just distal to the greater trochanter was located with palpation and a starter hole was made through the dermis using a 20G hypodermic needle. A 22G nerve stimulating injection needle (ProBloc II, cat#HN3S-40, Halyard Health) connected to a peripheral nerve stimulation device (EZstim II model ES400, Life-Tech, Inc.) was placed into the starter hole. The nerve stimulator was set to 0.7 mA and the injection needle was gently advanced in a line parallel to the femur until localized dorsal or plantar flexion of the foot was observed. Generalized muscle twitching involving primary twitching on the quadriceps muscle was considered a negative response and the needle was carefully re-positioned until the appropriate localized foot flicking was observed. […] The device was increased back to 0.2 mA and if twitching was still observed, the 100 μL injection was given.

[8] = biological target: T3, hNav1.7; assay: cell-based; conditions: manual patch clamp; read-out: Fitted Emax hNav1.7
[9] = biological target: T5, hNav1.6 (Homo sapiens, UniProt Q9UQD0); assay: cell-based; conditions: QPatch; for Emax: read-out: Fitted Emax hNav1.6
T5 sequence (Q9UQD0 whole entry): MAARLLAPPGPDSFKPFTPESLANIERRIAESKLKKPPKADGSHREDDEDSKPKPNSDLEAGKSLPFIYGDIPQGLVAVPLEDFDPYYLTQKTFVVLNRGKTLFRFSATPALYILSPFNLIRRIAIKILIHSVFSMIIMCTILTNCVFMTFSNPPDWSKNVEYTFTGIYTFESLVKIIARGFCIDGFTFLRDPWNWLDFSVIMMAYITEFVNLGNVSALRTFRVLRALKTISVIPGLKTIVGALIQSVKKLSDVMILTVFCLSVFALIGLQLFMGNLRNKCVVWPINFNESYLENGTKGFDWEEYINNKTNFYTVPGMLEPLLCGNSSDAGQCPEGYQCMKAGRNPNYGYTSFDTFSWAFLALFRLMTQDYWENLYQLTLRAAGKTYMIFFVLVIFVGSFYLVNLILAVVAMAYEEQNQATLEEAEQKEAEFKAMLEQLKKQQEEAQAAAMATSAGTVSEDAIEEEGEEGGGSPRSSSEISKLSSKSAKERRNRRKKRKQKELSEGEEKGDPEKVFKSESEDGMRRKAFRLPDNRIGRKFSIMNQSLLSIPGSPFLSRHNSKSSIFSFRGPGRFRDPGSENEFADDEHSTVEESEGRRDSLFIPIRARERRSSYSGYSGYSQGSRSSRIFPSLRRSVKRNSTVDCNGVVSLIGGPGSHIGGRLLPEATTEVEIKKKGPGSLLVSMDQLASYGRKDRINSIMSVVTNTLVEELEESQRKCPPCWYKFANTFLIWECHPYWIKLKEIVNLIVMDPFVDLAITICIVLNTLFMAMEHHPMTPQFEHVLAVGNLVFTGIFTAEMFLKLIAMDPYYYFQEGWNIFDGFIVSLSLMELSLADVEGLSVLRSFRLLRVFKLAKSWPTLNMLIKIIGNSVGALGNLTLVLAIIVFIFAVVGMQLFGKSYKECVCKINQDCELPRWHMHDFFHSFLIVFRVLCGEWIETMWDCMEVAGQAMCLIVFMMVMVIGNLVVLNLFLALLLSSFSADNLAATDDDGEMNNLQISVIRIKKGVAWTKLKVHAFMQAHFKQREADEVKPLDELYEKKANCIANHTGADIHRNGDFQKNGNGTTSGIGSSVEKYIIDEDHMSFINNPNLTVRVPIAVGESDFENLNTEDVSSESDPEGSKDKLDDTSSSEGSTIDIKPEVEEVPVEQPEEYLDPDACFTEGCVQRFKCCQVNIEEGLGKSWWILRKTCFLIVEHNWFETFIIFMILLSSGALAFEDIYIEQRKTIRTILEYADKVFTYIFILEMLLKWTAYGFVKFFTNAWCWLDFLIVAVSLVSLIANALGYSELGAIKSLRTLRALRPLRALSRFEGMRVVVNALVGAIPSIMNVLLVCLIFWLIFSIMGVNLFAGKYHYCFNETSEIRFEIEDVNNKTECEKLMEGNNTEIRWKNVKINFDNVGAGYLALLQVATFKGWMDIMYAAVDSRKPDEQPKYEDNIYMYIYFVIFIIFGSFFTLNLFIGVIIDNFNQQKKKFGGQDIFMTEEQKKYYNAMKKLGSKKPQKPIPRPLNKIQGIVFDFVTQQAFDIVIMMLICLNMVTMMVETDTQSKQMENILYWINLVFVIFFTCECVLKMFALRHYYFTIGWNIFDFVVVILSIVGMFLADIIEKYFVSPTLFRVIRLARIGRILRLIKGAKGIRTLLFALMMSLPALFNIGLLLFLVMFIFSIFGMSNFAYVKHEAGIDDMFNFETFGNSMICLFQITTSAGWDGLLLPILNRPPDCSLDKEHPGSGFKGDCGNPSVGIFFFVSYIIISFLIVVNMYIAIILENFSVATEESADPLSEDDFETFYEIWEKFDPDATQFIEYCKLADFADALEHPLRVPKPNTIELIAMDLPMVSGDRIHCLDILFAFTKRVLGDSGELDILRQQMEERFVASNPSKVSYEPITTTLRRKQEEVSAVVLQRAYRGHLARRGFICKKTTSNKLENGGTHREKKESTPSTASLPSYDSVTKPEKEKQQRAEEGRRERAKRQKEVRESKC

[10] = biological target: T2, hNav1.2; assay: cell-based; conditions: QPatch; read-out: Fitted Emax hNav1.2
[11] = biological target: T1, hNav1.4; assay: cell-based; conditions: manual patch clamp; read-out: Fitted Emax hNav1.4
[12] = biological target: T5, hNav1.6; assay: cell-based; conditions: manual patch clamp
[13] = for maximum tolerated dose (MTD), IT: intrathecal; for lesions to the face and shoulders: rats; for abnormal proprioception of hind paws / abnormal stepping / flaccidity / hindlimb weakness: baseline 0/7
[14] = biological target: hNav1.3 (Homo sapiens, UniProt Q9NY46); assay: cell-based; conditions: QPatch; read-out: Fitted Emax hNav1.3
[15] = biological target: hNav1.5 (Homo sapiens, UniProt Q14524); assay: cell-based; conditions: QPatch; read-out: Fitted Emax hNav1.5
[16] = 0.5 μg/10 μl IT, 2 h post dose (1 h post formalin)
[17] = 2.5 μg/10 μl IT, 2 h post dose (1 h post formalin)
[18] = 2.5 μg/10 μl IT, first 2 animals not assessed
[19] = 2 μg/10 μl IT, 30 min post dosing
[20] = 2 μg/10 μl IT, 90 min post dosing
[21] = 2 μg/10 μl IT, formalin study, in words

T2 sequence (Q99250 whole entry): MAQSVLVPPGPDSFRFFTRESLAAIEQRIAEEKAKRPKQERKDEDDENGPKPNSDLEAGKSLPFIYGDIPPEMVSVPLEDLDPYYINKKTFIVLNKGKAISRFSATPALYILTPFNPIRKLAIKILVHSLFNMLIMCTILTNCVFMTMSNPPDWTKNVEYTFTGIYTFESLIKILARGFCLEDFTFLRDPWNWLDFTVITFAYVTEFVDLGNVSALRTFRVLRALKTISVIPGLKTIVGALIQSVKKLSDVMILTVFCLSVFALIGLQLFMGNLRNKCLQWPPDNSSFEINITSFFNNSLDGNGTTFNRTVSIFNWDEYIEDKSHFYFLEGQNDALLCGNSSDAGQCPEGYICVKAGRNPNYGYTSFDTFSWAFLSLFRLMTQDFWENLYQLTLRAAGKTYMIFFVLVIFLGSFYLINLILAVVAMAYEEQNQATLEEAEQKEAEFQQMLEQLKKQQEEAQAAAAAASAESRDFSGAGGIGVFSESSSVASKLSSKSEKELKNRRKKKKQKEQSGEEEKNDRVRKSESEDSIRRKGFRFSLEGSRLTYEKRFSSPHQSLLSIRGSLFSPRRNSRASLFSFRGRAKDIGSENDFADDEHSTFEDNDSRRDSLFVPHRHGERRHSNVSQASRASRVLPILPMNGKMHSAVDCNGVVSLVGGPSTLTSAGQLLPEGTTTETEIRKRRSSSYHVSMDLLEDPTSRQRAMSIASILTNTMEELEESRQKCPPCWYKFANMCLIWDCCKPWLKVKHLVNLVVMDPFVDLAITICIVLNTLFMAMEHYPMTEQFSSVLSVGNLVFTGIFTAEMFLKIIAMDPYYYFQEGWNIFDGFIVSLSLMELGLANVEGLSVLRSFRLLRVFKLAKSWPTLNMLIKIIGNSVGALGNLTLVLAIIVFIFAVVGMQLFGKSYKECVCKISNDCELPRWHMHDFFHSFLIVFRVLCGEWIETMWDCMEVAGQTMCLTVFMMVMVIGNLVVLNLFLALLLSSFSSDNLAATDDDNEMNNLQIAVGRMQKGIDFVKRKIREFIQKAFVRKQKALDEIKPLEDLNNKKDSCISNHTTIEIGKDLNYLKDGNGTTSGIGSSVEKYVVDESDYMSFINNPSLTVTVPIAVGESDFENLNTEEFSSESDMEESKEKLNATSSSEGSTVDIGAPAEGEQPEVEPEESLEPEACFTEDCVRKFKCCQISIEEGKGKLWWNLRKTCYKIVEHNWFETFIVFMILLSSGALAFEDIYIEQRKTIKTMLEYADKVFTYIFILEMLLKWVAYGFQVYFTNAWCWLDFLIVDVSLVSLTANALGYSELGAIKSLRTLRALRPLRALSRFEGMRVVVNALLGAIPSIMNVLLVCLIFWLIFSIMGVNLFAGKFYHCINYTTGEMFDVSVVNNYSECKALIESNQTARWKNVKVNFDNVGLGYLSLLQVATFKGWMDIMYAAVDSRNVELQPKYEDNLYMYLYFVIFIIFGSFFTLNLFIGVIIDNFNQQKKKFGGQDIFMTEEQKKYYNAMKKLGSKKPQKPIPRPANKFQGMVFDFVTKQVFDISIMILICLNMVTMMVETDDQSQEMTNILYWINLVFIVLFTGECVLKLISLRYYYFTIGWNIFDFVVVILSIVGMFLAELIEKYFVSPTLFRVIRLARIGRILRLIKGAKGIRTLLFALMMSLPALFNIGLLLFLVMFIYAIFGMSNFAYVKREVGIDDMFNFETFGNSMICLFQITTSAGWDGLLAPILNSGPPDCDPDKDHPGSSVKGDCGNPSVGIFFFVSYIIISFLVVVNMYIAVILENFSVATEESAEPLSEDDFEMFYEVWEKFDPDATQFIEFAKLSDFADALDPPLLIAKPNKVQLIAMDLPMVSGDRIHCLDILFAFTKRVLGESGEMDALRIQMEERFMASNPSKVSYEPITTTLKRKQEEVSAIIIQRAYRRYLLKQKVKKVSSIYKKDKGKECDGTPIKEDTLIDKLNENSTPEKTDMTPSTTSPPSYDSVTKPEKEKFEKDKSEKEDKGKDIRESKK

SMILES: CSCC[C@@H]1NC(=O)CNC(=O)[C@H](CCC(=O)O)NC(=O)[C@@H]2CSSC[C@H](NC(=O)[C@H](Cc3ccc(O)cc3)NC(=O)[C@@H]3CCCN3C(=O)CN)C(=O)N[C@@H](CCC(N)=O)C(=O)N[C@@H](CCCCN)C(=O)N[C@@H](Cc3c[nH]c4ccccc34)C(=O)N[C@@H](CCSC)C(=O)N[C@@H](CCC(N)=O)C(=O)N[C@@H]([C@@H](C)O)C(=O)N[C@H]3CSSC[C@H](NC(=O)[C@H](C(C)C)NC1=O)C(=O)N[C@@H](CCCNC(=N)N)C(=O)N[C@@H](CC(C)C)C(=O)N[C@@H](Cc1c[nH]c4ccccc14)C(=O)N[C@H](C(=O)N[C@@H](CCCCN)C(=O)N[C@@H](CCCCN)C(=O)N[C@@H](CCCCN)C(=O)N[C@@H](CC(C)C)C(=O)N[C@@H](CC(C)C)C(=O)O)CSSC[C@H](NC(=O)[C@H](CCCCN)NC(=O)[C@H](CCCNC(=N)N)NC(=O)[C@H](CCC(=O)O)NC(=O)[C@H](CO)NC(=O)[C@H](CC(=O)O)NC3=O)C(=O)N2 [JNJ63955918]
- Emax [1]: 100%
- Emax [2]: 50 ± 18.5%
- Emax [3]: 79.1 ± 3.4%
- IC50 ([4]; holding −120 mV, test −10 mV, 0.1% BSA, 22–24 °C, read-out: pIC50 hNav1.1 (converted)): 10 µM
- Emax ([4]; read-out: Fitted Emax hNav1.1): 100%
- Emax [5]: 100%
- body weight gain vs vehicle [6]: gained weight at the same rate
- motor or other behavioral abnormalities [6]: No motor or other behavioral abnormalities were observed
- scabbing [6]: Some scabbing on the face, shoulders, hind limbs and tail
- scratching / behavioral abnormalities ([7]; 1.4 mg/100 μl peri-sciatic, in words): Scratching was observed in some animals but no other behavioral abnormalities were noted
- mentation BAR (bright, alert and responsive) ([7]; 15 min post dose): 7/9
- normal corneal reflex ([7]; 15 min post dose): 9/9
- normal pinna reflex ([7]; 15 min post dose): 9/9
- normal placing stepping ([7]; 15 min post dose): 9/9
- scratching ([7]; 15 min post dose): 0/9
- mentation BAR (bright, alert and responsive) ([7]; 30 min post dose): 4/9
- normal corneal reflex ([7]; 30 min post dose): 9/9
- normal pinna reflex ([7]; 30 min post dose): 9/9
- normal placing stepping ([7]; 30 min post dose): 9/9
- scratching ([7]; 30 min post dose): 1/9
- mentation BAR (bright, alert and responsive) ([7]; 60 min post dose): 5/9
- normal corneal reflex ([7]; 60 min post dose): 9/9
- normal pinna reflex ([7]; 60 min post dose): 9/9
- normal placing stepping ([7]; 60 min post dose): 9/9
- scratching ([7]; 60 min post dose): 2/9
- mentation BAR (bright, alert and responsive) ([7]; 120 min post dose): 6/9
- normal corneal reflex ([7]; 120 min post dose): 9/9
- normal pinna reflex ([7]; 120 min post dose): 9/9
- normal placing stepping ([7]; 120 min post dose): 9/9
- scratching ([7]; 120 min post dose): 2/9
- mentation BAR (bright, alert and responsive) ([7]; 240 min post dose): 8/9
- normal corneal reflex ([7]; 240 min post dose): 9/9
- normal pinna reflex ([7]; 240 min post dose): 9/9
- normal placing stepping ([7]; 240 min post dose): 9/9
- scratching ([7]; 240 min post dose): 1/9
- mentation BAR (bright, alert and responsive) ([7]; 24 h post dose): 9/9
- normal corneal reflex ([7]; 24 h post dose): 9/9
- normal pinna reflex ([7]; 24 h post dose): 9/9
- normal placing stepping ([7]; 24 h post dose): 9/9
- gross motor deficits ([7]; 2.5 mg/100 μl peri-sciatic, in words): absence of any gross motor deficits
- tolerability, peri-sciatic ([7]; up to 2.5 mg/100 μl, in words): well tolerated
- Emax [8]: 94.8 ± 3.3%
- Emax [9]: 100%
- Emax [10]: 27.6 ± 7.3%
- Emax [11]: 100%
- IC50 ([12]; holding −120 mV, test −10 mV, 0.1% BSA, 22–24 °C, read-out: pIC50 hNav1.6 (converted)): 1 µM
- Emax ([12]; read-out: Fitted Emax hNav1.6): 100%
- gross motor normal ([13]; 0.5 μg/10 μl IT, 1 h post dose): 6/6
- normal proprioception ([13]; 0.5 μg/10 μl IT, 1 h post dose): 6/6
- gross motor normal [13, 16]: 6/6
- normal proprioception [13, 16]: 6/6
- abrasions at euthanasia ([13]; 0.5 μg/10 μl IT, first 2 animals not assessed): 0/4
- gross motor normal ([13]; 2.5 μg/10 μl IT, 1 h post dose): 6/6
- normal proprioception ([13]; 2.5 μg/10 μl IT, 1 h post dose): 6/6
- gross motor normal [13, 17]: 6/6
- normal proprioception [13, 17]: 6/6
- excessive scratching leading to upper body skin abrasion (animals affected) ([13]; 2.5 μg/10 μl IT, blinded repeat study): 2 of 4
- abrasions at euthanasia [13, 18]: 2/4
- scratching [13, 18]: 2/4
- duration of muscle weakness ([13]; 7.5 μg/10 μl IT): < 1 h
- incidence of mild reversible muscle weakness ([13]; 7.5 μg/10 μl IT): approximately 50%
- scabbing ([13]; IT dose range finding, in words): Scabbing on face/neck/shoulders was observed in some rats
- motor impairment ([13]; IT doses above 7.5 μg/10 μl, in words): Dose related motor impairment became more obvious and the duration of the effects was longer
- tolerability ([13]; IT doses up to 5 μg/10 μl, in words): well tolerated with no detectable abnormal behaviors
- in-vivo safety window ([13]; rat, in vivo): 7–16 fold
- therapeutic margin vs ziconotide ([13]; rat, in vivo): greater than that of ziconotide
- maximum tolerated dose (MTD), IT ([13]; rat): 5 μg/10 μl
- lesions to the face and shoulders ([13]; in words): often noticed

SMILES: CSCC[C@@H]1NC(=O)CNC(=O)[C@H](CCC(=O)O)NC(=O)[C@@H]2CSSC[C@H](NC(=O)[C@@H](N)Cc3ccc(O)cc3)C(=O)N[C@@H](CCC(N)=O)C(=O)N[C@@H](CCCCN)C(=O)N[C@@H](Cc3c[nH]c4ccccc34)C(=O)N[C@@H](CCSC)C(=O)N[C@@H](Cc3c[nH]c4ccccc34)C(=O)N[C@@H]([C@@H](C)O)C(=O)N[C@H]3CSSC[C@H](NC(=O)[C@H](C(C)C)NC1=O)C(=O)N[C@@H](CCCNC(=N)N)C(=O)N[C@@H](CC(C)C)C(=O)N[C@@H](Cc1c[nH]c4ccccc14)C(=O)N[C@H](C(=O)N[C@@H](CCCCN)C(=O)N[C@@H](CCCCN)C(=O)N[C@@H](CCCCN)C(=O)N[C@@H](CC(C)C)C(=O)N[C@@H](Cc1c[nH]c4ccccc14)C(=O)O)CSSC[C@H](NC(=O)[C@H](CCCCN)NC(=O)[C@H](CCCNC(=N)N)NC(=O)[C@H](CCC(=O)O)NC(=O)[C@H](CO)NC(=O)[C@H](CC(=O)O)NC3=O)C(=O)N2 [ProTX-II, reference compound]
- Emax [1]: 100%
- Emax [5]: 100%
- ambulation ([7]; 250 μg/100 μl peri-sciatic, in words): No effect upon ambulation
- tolerability, peri-sciatic ([7]; 250 μg/100 μl, in words): well tolerated at the highest dose tested
- IC50 ([9]; CHO cells, holding −60 mV, 0.1% BSA, ~22 °C, ± SEM, read-out: pIC50 hNav1.6 (converted)): 0.0316 µM
- Emax [9]: 100%
- Emax [14]: 100%
- Emax [10]: 100%
- Emax [15]: 100%
- abnormal proprioception of hind paws [13, 19]: 2/7
- abnormal stepping [13, 19]: 2/7
- flaccidity [13, 19]: 1/7
- hindlimb weakness [13, 19]: 2/7
- abnormal proprioception of hind paws [13, 20]: 0/7
- abnormal stepping [13, 20]: 0/7
- flaccidity [13, 20]: 0/7
- hindlimb weakness [13, 20]: 2/7
- abrasions and scabs [13, 21]: Abrasions and scabs to the face, neck, and shoulders were observed in some
- effect on motor function [13, 21]: without any severe effect on motor function
- motor effects just above efficacious dose ([13]; rat, IT, in words): exerts profound motor effects at doses just above the efficacious analgesic dose
- motor effects above maximum tolerated IT dose ([13]; rat, higher than 2 μg/10 μl, in words): dose-related motor abnormalities that progressed from transient rear weakness, to paralysis of both the hind and forelimbs, slowing of respiration and death
- maximum tolerated dose (MTD), IT ([13]; rat): 2 μg/10 μl
- lesions to the face and shoulders ([13]; in words): often noticed

Source: paper PMC5206724, “Insensitivity to pain induced by a potent selective closed-state Nav1.7 inhibitor” (Scientific Reports, 2017)
